Paper PMC2728625 (Nature structural & molecular biology, 2009)
Marks after values point to notes of the source that are not given here.

How the values were obtained:
[1] = biological target: T1, PV RdRp WT (Poliovirus type 1, UniProt P03300); format: biochemical
[2] = biological target: T7 DdRp WT (Escherichia phage T7, UniProt P00573); format: biochemical
[3] = biological target: T7 DdRp K631L (Escherichia phage T7, UniProt P00573, K631L); format: biochemical
[4] = biological target: T1, PV RdRp WT; format: biochemical; remark: listed apart in the source
[5] = biological target: T1, PV RdRp WT; details: cited from earlier work
[6] = read-out: Kd,app (apparent dissociation constant for nucleotide)

T7 DdRp K631L, sequence (P00573 whole entry K631L, looked up): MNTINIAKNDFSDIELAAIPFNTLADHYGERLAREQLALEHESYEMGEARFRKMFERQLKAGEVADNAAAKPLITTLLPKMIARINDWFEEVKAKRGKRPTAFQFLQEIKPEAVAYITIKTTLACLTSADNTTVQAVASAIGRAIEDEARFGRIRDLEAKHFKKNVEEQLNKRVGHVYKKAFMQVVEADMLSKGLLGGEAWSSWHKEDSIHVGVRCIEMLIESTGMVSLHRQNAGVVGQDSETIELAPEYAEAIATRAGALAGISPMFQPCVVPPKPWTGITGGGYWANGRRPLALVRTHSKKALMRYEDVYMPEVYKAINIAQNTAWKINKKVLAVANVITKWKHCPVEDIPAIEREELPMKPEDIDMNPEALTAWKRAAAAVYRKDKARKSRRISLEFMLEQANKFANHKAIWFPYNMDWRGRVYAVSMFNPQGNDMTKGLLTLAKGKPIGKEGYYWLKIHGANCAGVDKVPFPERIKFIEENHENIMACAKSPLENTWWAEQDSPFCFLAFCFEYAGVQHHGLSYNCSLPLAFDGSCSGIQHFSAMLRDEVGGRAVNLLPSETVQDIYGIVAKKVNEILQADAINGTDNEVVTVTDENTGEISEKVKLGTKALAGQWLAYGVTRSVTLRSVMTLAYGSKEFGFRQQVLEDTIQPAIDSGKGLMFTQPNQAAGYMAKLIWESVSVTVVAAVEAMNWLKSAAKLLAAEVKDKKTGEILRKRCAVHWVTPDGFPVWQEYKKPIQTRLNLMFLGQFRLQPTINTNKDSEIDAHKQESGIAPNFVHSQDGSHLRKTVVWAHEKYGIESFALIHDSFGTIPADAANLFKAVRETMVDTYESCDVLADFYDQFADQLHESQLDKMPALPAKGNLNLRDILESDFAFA
T1 sequence (P03300 1749-2209 limits assumed): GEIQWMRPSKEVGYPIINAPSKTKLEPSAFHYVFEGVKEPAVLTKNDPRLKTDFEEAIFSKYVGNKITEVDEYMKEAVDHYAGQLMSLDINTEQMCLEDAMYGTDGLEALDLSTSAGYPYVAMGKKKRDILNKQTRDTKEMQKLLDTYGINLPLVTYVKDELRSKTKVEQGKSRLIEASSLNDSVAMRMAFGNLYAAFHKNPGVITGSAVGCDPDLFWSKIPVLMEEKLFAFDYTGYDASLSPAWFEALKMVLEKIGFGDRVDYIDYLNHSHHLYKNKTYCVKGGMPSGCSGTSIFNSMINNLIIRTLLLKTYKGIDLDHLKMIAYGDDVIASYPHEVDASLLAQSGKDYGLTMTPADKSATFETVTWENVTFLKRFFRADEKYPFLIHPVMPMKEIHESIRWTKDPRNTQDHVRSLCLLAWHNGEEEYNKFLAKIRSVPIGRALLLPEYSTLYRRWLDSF
T7 DdRp WT, sequence (P00573 whole entry, looked up): as the sequence (P00573 whole entry K631L, looked up) above, with L631K counted along it

Nc1ncnc2c1ncn2[C@@H]1O[C@H](COP(=O)(O)OP(=O)(O)OP(=O)(O)O)[C@@H](O)[C@H]1O [ATP]
PI (proton inventory: proton-transfer model that best fits) [1]: 2
SDKIE (solvent deuterium kinetic isotope effect) [1]: 3.0 ± 0.3
kpol (maximal rate constant for nucleotide incorporation) [1]: 50 ± 5 s⁻¹
Kd [1, 6]: 200 ± 20 µM
PI (proton inventory: proton-transfer model that best fits) [2]: 2
SDKIE (solvent deuterium kinetic isotope effect) [2]: 5.2 ± 0.5
kpol (maximal rate constant for nucleotide incorporation) ([2]; pH 7.5): 60 ± 5 s⁻¹
Kd ([2]; read-out: Kd,app (apparent dissociation constant for nucleotide), pH 7.5): 300 ± 30 µM
SDKIE (solvent deuterium kinetic isotope effect) [3]: 2.6 ± 0.5 ^c
kpol (maximal rate constant for nucleotide incorporation) [3]: 0.6 ± 0.1 s⁻¹
reduction in kpol relative to wt [3]: 100 fold
Kd [3, 6]: 50000 µM
SDKIE [4]: 7 ± 1
pKa from pH rate profile of kpol, second ionizable group [5]: 10.5
